Measurements as given in patent publication US20080241943A1, “Subnanomolar Precipitator of Thiophilic Metals” (The Scripps Research Institute, priority 2004, published 2008).

Key:
[1] = Thiophilic metal precipitation by ligand; format: physicochemical; conditions: for metal salt concentration at which precipitation was visually apparent: 10% aqueous CH3CN
Procedure: (§1) General procedure for thiophilic metal precipitation. A 10 μL aliquot of a 200 mM stock of metal ion in water was incubated at room temperature with 200 μL of a 10 mM stock of ligand 3a in CH3CN. Red precipitates from 3a appeared upon increasing the amount of water in the final reaction mixture to over 20% (v/v). The formation of these red precipitates provided an ideal tool for verification of sample quality. Red precipitates from 3a were readily removed by triturating the precipitate with acetonitrile.

[2] = Heavy metal competitions (precipitation in the presence of other metal ions); format: physicochemical; conditions: mixtures containing Cu^2+
Procedure: (§2) Determination of solubility products (Ksp). Weight analysis (FIG. 2A): Ksp values were determined either by weighing the amount of precipitate 4a. Scale-up was required to provide sufficient material for analysis on conventional microbalances. The following procedure was used for this analysis: a 100 μL aliquot of a 200 mM stock of metal ion in water was incubated at room temperature with 2 mL of a 10 mM stock of ligand 3a in acetonitrile. After 10 minutes the precipitate was isolated by centrifugation for 5 min at 2,000×g, washed with acetonitrile (5 ml), methanol (5 ml) and dried in vacuo. Spectrophotometric analysis (FIG. 2B): A 10 μL aliquot of a 200 mM stock of metal ion in water was added to 200 μL of a 10 mM stock of ligand 3a in acetonitrile in a spin filter (Millipore). After 10 minutes at rt, the precipitate was removed by centrifugation at 2,000×g. Spectroscopic analysis of the supernatant was performed on a conventional microarray reader (PerSeptive Biosystems CytoFluor or Perkin Elmer HST 7000 plate reader).
Heavy metal competitions. A 167 μL aliquot of a 20 mM stock of metal ion in water was incubated at room temperature with 333 μL of a 10 mM stock of ligand 3a in acetonitrile. […] The supernatant was analyzed on a PerSeptive Biosystems CytoFluor or Perkin Elmer HST 7000 plate reader using excitation at 510 nm. […]

[3] = Thiophilic metal precipitation by ligand, panel of metal ions; format: physicochemical; conditions: spectroscopic analyses; did not correlate with Ksp
Procedure: as §1

[4] = Determination of the extent of metal precipitation (vapor atomic absorption of supernatant); format: physicochemical; conditions: after reacting 6.7±0.01 mM Hg(OAc)2 with 6.7±0.01 mM 3a
Procedure: Determination of the extent of metal precipitation. An 167 μL aliquot of a 20 mM stock of Hg(OAc)2 in water was incubated at room temperature with 333 μL of a 10 mM stock of ligand 3 in CH3CN. Precipitation occurred immediately. After 5 minutes the sample was centrifuged for 5 min at 14,000×g. The supernatant was removed and an aliquot submitted to vapor atomic absorption analysis (Galbraith Laboratories, Knoxyille, Tenn.).

[5] = Precipitation of free ligand from aqueous CH3CN; format: physicochemical; conditions: 10 mM 3a stock in CH3CN, room temperature
Procedure: as §1

[6] = Determination of solubility products (Ksp), reproducibility; format: physicochemical; conditions: concentrations 1 mM-0.1 μM, pH 3-10, temperature 0-50° C.
Procedure: as §2

[7] = cited from earlier work

S=C1SC(c2ccccc2)(c2ccccc2)c2ccccc21 [3a, 3,3-Diphenylbenzo[c]thiophene-1(3H)-thione]
metal salt concentration at which precipitation was visually apparent ([1]; CdCl2 added to 25 μM 3a): 50 µM | metal salt concentration at which precipitation was visually apparent ([1]; Hg(OAc)2 added to 1 μM 3a): 2 µM | metal salt concentration at which precipitation was visually apparent ([1]; Pb(OAc)2 added to 5 μM 3a): 10 µM | Cu^2+ tolerated in analysis of Hg^2+, Pb^2+ and Cd^2+ [2]: 500 equivalents | rate of precipitation (order of metal ions) [3]: Hg^2+>Pb^2+>Cd^2+>(Au^3+˜Cu^2+)>(Pd^2+˜Ni^2+)>(Co^2+˜Mo^2+˜Pt^2+) | amount of Hg^2+ left in supernatant [4]: 0.58 ± 0.03 µM | amount of water in the final reaction mixture at which red precipitates from 3a appeared [5]: over 20 % (v/v) | deviation of Ksp values [6]: ≤ 1%

CCCCCCCCCCc1ccc(C2(c3ccc(CCCCCCCCCC)cc3)SC(=S)c3ccccc32)cc1 [3b, 3,3-Bis(4-decylphenyl)benzo[c]thiophene-1(3H)-thione]
induction time of precipitation ([1]; by Hg^2+): > 5 min | induction time of precipitation ([1]; by Pb^2+): > 5 min

O=C(O)CN(CC(=O)O)c1ccc(-c2c3cc(F)c(=O)cc-3oc3cc(O)c(F)cc23)cc1OCCOc1cc([N+](=O)[O-])ccc1N(CC(=O)O)CC(=O)O [Fluo-5N]
affinity to Cd^2+ relative to La^3+ ([7]; at 1 μM): O-fold | affinity for La^3+ over Cd^2+ ([7]; at 100 μM): 2 fold
